Results as given in patent EP0028270A1, “Pyrazino-carbazoles, process for their preparation and pharmaceutical compositions containing them” (CASSELLA Aktiengesellschaft, priority 1979, dated 1981).

How the values were obtained:
Tetrabenazin = assay: Tetrabenazine antagonism (antidepressant activity); type: in vivo; details: for ED50: no unit, species or route given, read-out: Tetrabenazin Dosis Antagonismus ED50; for LD50/ED50: ratio of LD50 to tetrabenazine antagonism ED50
Acute toxicity (LD50) = type: in vivo; details: no unit, species or route given

SMILES | ED50 (Tetrabenazin) | LD50/ED50 (Tetrabenazin) | LD50 (Acute toxicity (LD50))
Cc1ccc2c(c1)c1c3n2CCNC3CCC1.Cl (centres unmarked) [8-Methyl-2,3,3a,4,5,6-hexahydro-1H-pyrazino[3,2,1-jk]-carbazol-Hydrochlorid, reference compound] | 14 mg/kg | 8,7 | –
Cc1ccc2c(c1)c1c3n2CCN=C3CCC1.Cl [Beispiel 1, 8-Methyl-2,4,5,6-tetra-hydro-1H-pyrazino[3,2,1-jk]carbazol-Hydrochlorid] | 4 mg/kg | 18,0 | 72 mg/kg
COc1ccc2c(c1)c1c3n2CCN=C3CCC1.Cl [Beispiel 2, 8-Methoxy-2,4,5,6-tetra-hydro-1H-pyrazino[3,2,1-jk]carbazol-Hydrochlorid] | 2 mg/kg | 18,5 | 37 mg/kg
